Test results taken from PMC4314066, “Houttuynia cordata Targets the Beginning Stage of Herpes Simplex Virus Infection” (PLoS ONE, 2015).
Converted amounts (≈) assume the structure as drawn. Like-named read-outs stand apart in the source and are kept apart here.

Assays:
[1] = test system: Acyclovir-resistant HSV-1 (HSV-AR); assay: microbe, parasite or virus in culture; format: cell-based; conditions: Human alphaherpesvirus 1, Vero, read-out: EC50 HSV-AR
Description: (§1) African green monkey kidney cells (Vero, ATCC CCL-81) and human epithelial carcinoma cells (HEp-2, ATCC CCL-23 and A549, ATCC CCL-185) were maintained in Dulbecco’s modified Eagle’s medium (DMEM), modified Eagle’s medium (MEM) and RPMI-1640 medium, respectively, supplemented with 10% fetal bovine serum (Gibco), 100 units/mL penicillin, and 100 μg/mL streptomycin. All the cell lines were cultured at 37°C with 5% CO2. HSV-1F (ATCC VR-733) and HSV-2G (ATCC VR-734) stocks were propagated in Vero cells, aliquoted and stored at -80°C. ACV-resistant HSV-1 was generated in our previous study.
(§2) 1X 10^6 Vero cells were seeded onto 6-well culture plates for 24 hours and infected with 100 pfu/well virus at 37°C for 1 hour. […] After 3 days, the cells were fixed with 3.7% formaldehyde and stained with crystal violet. The plaques were counted.

MTT cytotoxicity assay = format: cell-based, African green monkey; conditions: African green monkey
Description: (§3) All the cell lines were cultured at 37°C with 5% CO2. […] ACV-resistant HSV-1 was generated in our previous study.
(§4) The cells were washed with PBS, added with 0.1 mg/mL MTT reagent [3-(4,5-dimethylthiazol-2-yl)-2,5-diphenyl tetrazolium bromide; Sigma] and incubated at 37°C for 5 hours. After incubation, MTT reagent was removed and DMSO was added to each well. The absorbance was then determined by ELISA reader (SpectraMAX 340, Molecular Devices) at the wavelength of 550 nm.

HSV-1 [2] = assay: Plaque reduction assay; format: cell-based; conditions: for EC50: read-out: EC50 HSV-1
Description: as §1, §2

HSV-2 = assay: Plaque reduction assay; format: cell-based; conditions: for EC50: read-out: EC50 HSV-2
Description: as §1, §2

Vero cells = assay: MTT cytotoxicity assay; format: cell-based, African green monkey; conditions: Vero cells, MTT
Description: as §3, §4

HSV-1 [3] = assay: Virus binding to Vero cells, Western blot of cell-bound virus gD; format: cell-based; conditions: 1 m.o.i., 4°C
HSV-1 [4] = assay: Virus pre-treatment assay (plaque assay); format: cell-based; conditions: 100 pfu HSV-1 pretreated, Vero cells, Fig. 9A
Description: After incubation, HCWEs-pretreated cells were washed with PBS and then infected with 100 pfu HSV. The inhibitory activities were analyzed by plaque assay. […] After 3 hours of incubation, 1X10^6 Vero cells were infected with HCWEs-pretreated virus and then analyzed by plaque assay.

NF-κB = NF-κB translocation analysis by Western blot of nuclear fractions; format: cell-based; conditions: HSV-1 infection, nuclear fraction at 3 h.p.i.
Excerpt: During HSV infection, there are two waves of NF-κB activation. The first-wave of NF-κB activation could enhance ICP0 transcription via binding onto viral ICP0 promoter while the second-wave of NF-κB activation could prevent host cells from apoptosis. […] The nuclear fractions were extracted and applied to NF-κB translocation analysis by Western blot assay. […] After transfection, luciferase activity of pGL-ICP0 Wt transfected cells increased up to 3,000-fold compared with the vector control, pGL, in HSV-1 infection. […] Although it is well known the expression of ICP0 is regulated by NF-κB, the exact NF-κB binding site on ICP0 promoter is not identified yet. […] Only one NF-κB binding site was predicted within the HSV-1 ICP0 promoter. To determine whether the HCWEs-mediated ICP0 suppression was NF-κB-dependent, the predicted NF-κB binding site within pGL-ICP0 Wt was mutated by PCR-based mutagenesis and the resulting plasmid was named as pGL-ICP0 Mut. […] The results implied that HSV-1 ICP0 promoter activity was at least partly regulated by NF-κB.

[5] = Vero cells, MTT, read-out: CC50
[6] = Human alphaherpesvirus 1, Vero cells
[7] = Human alphaherpesvirus 2, Vero cells

Compound	CC50 at 3 days (MTT cytotoxicity assay; [5]) [µg/mL]	EC50 (HSV-1 [2]; [6]) [µg/mL]	EC50 (HSV-2; [7]) [µg/mL]	cell binding ability of HSV-1 (Western blot) (HSV-1 [3])	inhibition of HSV-1 by pretreatment of virus with pure compound (HSV-1 [4])	SI HSV-1 (CC50/EC50) (HSV-1 [2])	other results
Nc1nc2c(ncn2COCCO)c(=O)[nH]1 [Acyclovir, acyclovir, reference compound]	> 450	0.74 (≈ 3.29 µM)	0.82 (≈ 3.64 µM)	–	–	–	EC50 [1]: 14 µg/mL (≈ 62.3 µM)
O=C(/C=C/c1ccc(O)c(O)c1)O[C@@H]1C[C@](O)(C(=O)O)C[C@@H](O)[C@H]1O [Chlorogenic acid, chlorogenic acid]	1240 (≈ 3510 µM)	> 1240	> 1240	–	–	–	–
O=c1c(O[C@@H]2O[C@H](CO)[C@H](O)[C@H](O)[C@H]2O)c(-c2ccc(O)c(O)c2)oc2cc(O)cc(O)c12 [Hyperin, hyperin]	–	–	–	–	–	–	CC50 (Vero cells): >500 µg/mL; EC50 HSV-1 (HSV-1 [2]; Vero cells): >500 µg/mL; EC50 HSV-2 (HSV-2; Vero cells): >500 µg/mL
O=c1c(O[C@@H]2O[C@H](CO)[C@@H](O)[C@H](O)[C@H]2O)c(-c2ccc(O)c(O)c2)oc2cc(O)cc(O)c12 [Isoquercitrin, isoquercitrin]	> 200	0.42 (≈ 0.904 µM)	0.39 (≈ 0.84 µM)	not	not	>476.2	HSV-induced NF-κB translocation / activation (NF-κB): inhibited NF-κB activation
O=c1c(O)c(-c2ccc(O)c(O)c2)oc2cc(O)cc(O)c12 [Quercetin, quercetin]	486 (≈ 1610 µM)	52.9 (≈ 175 µM)	70 (≈ 232 µM)	inhibited the binding of HSV-1 onto host cells	targeted virus particles directly and inhibited viral entry	9.18	HSV-induced NF-κB translocation / activation (NF-κB): inhibited NF-κB activation; SI HSV-2 (CC50/EC50) (HSV-2): 6.94
C[C@@H]1O[C@@H](Oc2c(-c3ccc(O)c(O)c3)oc3cc(O)cc(O)c3c2=O)[C@H](O)[C@H](O)[C@H]1O [Quercitrin, quercitrin]	142 (≈ 317 µM)	–	–	–	–	–	EC50 (HSV-1 [2]; Human alphaherpesvirus 1, Vero): > 142 µg/mL; EC50 (HSV-2; Human alphaherpesvirus 2, Vero): > 142 µg/mL
C[C@@H]1O[C@@H](OC[C@H]2O[C@@H](Oc3c(-c4ccc(O)c(O)c4)oc4cc(O)cc(O)c4c3=O)[C@H](O)[C@@H](O)[C@@H]2O)[C@H](O)[C@H](O)[C@H]1O [Rutin, rutin]	–	188 (≈ 307 µM)	169 (≈ 278 µM)	not	not	3.745	CC50 at 3 days (MTT cytotoxicity assay): 702 µg/mL (≈ 1150 µM); SI HSV-2 (CC50/EC50) (HSV-2): 4.146
